# Patent US20130217664A1, “NOVEL COMPOUNDS USEFUL FOR THE TREATMENT OF DEGENERATIVE AND INFLAMMATORY DISEASES” (priority 2012, published 2013)
# Legend:
# human JAK3 = target: T1, human JAK3 (Homo sapiens, UniProt P52333); assay: JAK3 inhibition assay; type: biochemical; conditions: recombinant human JAK3 catalytic domain; polyGT substrate
# T1 construct: catalytic domain (amino acids 781-1124; catalog number PV3855); purchased Invitrogen PV3855
# Method in brief: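 Radiometric kinase assay: 0.5 ng JAK3 with 2.5 μg polyGT in Tris pH 7.5/MgCl2 buffer, 1 μM ATP plus 0.25 μCi 33P-γ-ATP, 1% DMSO, 45 min at 30 °C, stopped with phosphoric acid.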
# CTLL-2 cell line = assay: CTLL2 viability assay; type: cell-based; conditions: Mus musculus, IL-2 dependent CTLL2 viability, 24 h, ATP-lite
# Excerpt: The protocol describes the methods to analyse the activity of compounds on their ability to sustain the IL2-dependent viability of CTLL2.
# Final DMSO concentration was 0.1%.
# human JAK1 = target: T2, human JAK1 (Homo sapiens, UniProt P23458); assay: JAK1 inhibition assay (polyGT substrate / Ulight-JAK1 peptide); type: biochemical; conditions: recombinant human JAK1 catalytic domain; polyGT or Ulight-JAK1 peptide assay
# T2 construct: catalytic domain, amino acids 866-1154; catalog number PV4774; purchased Invitrogen PV4774
# Method in brief: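 Signal scaled between vehicle and 10 μM staurosporine. Radiometric polyGT reactions ran 45 min at 30 °C, counted after phosphoric-acid stop. Ulight peptide reactions ran 60 min at room temperature, fluorescence read after adding Eu-PT66 detection mix with EDTA.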
# BA/F3 cell line = assay: BA/F3 viability assay; conditions: Mus musculus, BaF3, 48 h, read-out: BA/F3 IC50
# human TYK2 = target: T3, human TYK2 (Homo sapiens, UniProt P29597); assay: TYK2 inhibition assay; type: biochemical; conditions: recombinant human TYK2 catalytic domain, polyGT substrate
# T3 construct: catalytic domain (amino acids 871-1187; catalog number 08-147); purchased Carna Biosciences 08-147
# T3 sequence (P29597 871-1187): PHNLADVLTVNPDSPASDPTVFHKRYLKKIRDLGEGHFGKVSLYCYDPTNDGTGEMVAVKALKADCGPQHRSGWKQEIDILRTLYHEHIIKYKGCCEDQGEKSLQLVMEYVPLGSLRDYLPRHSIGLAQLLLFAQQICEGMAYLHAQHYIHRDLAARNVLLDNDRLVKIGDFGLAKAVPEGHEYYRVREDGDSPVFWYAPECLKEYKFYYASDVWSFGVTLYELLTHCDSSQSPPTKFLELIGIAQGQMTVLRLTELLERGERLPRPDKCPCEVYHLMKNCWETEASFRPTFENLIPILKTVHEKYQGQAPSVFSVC
# Method in brief: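 Radiometric kinase reaction run 90 min at 30 °C, stopped with phosphoric acid, washed and scintillation-counted.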
# [1] = test system: pSTAT1(2)-luciferase reporter in HeLa cells triggered with human OSM; assay: JAK-STAT signalling assay; type: cell-based; conditions: Homo sapiens, HeLa, HeLa cells, pSTAT1(2)-luciferase reporter, human OSM 33 ng/mL; read-out: JAK-STAT IC50
# Method in brief: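 Compound added 60 min before 33 ng/mL (final) human OSM; after overnight stimulation at 37 °C, luciferase signal from a transiently transfected pSTAT1(2) reporter in HeLa cells was read, with LacZ as internal control. EC50 derived from percent-inhibition dose-response curves.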
# human JAK2 = target: T4, human JAK2 (Homo sapiens, UniProt O60674); assay: JAK2 inhibition assay (polyGT substrate / Ulight-JAK1 peptide); type: biochemical; conditions: recombinant human JAK2 catalytic domain; polyGT or Ulight-JAK1 peptide assay
# T4 construct: catalytic domain (amino acids 808-1132; catalog number PV4210); GST; purchased Invitrogen PV4210
# Method in brief: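 Two JAK2 formats: a ^33P-ATP polyGT assay (1 μM cold ATP, 90 min, 30° C., cpm read-out) and a Ulight-JAK1 peptide assay read by Europium-anti-phosphotyrosine fluorescence after 60 min at room temperature.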
# T1 sequence (P52333 781-1124): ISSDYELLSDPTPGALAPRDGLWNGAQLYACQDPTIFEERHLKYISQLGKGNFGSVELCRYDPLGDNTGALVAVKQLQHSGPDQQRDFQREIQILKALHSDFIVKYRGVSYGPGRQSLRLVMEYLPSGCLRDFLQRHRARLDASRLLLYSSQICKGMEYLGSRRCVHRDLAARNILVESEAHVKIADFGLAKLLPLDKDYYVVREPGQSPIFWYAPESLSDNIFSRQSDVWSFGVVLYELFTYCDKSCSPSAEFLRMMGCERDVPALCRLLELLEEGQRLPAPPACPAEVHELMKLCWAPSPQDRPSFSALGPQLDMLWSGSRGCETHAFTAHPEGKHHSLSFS
# T2 sequence (P23458 866-1154): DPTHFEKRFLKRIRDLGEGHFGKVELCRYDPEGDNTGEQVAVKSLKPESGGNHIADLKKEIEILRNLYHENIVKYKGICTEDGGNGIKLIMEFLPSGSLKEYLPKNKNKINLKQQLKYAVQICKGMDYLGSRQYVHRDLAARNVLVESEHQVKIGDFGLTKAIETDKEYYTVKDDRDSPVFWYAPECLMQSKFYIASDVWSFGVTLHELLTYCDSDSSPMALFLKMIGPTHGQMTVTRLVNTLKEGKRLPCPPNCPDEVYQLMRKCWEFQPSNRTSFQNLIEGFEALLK
# T4 sequence (O60674 808-1132): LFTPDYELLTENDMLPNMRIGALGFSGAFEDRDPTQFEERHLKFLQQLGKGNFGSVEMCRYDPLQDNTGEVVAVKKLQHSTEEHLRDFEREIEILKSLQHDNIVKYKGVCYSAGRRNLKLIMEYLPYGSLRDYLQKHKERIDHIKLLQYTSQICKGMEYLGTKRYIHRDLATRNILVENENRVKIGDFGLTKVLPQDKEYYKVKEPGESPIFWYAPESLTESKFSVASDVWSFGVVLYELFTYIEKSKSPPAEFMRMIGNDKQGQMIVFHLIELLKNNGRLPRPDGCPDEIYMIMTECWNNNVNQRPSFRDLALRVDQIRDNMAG
IC50 (human JAK3),IC50 (human JAK1),IC50 (BA/F3 cell line),IC50 (human TYK2),IC50 [1],IC50 (human JAK2),Structure (SMILES),IC50 (CTLL-2 cell line)
0.01 to 100 nM,0.01 to 100 nM,1000 to 5000 nM,0.01 to 100 nM,,,"CCc1cc(CN(C)S(C)(=O)=O)ccc1N(C)c1cc2c(cn1)ncn2C [Compound 261, N-(3-ethyl-4-(methyl(1-methyl-1H-imidazo[4,5-c]pyridin-6-yl)amino)benzyl)-N-methylmethanesulfonamide]",501 to 1000 nM
101 to 500 nM,0.01 to 100 nM,> 5000 nM,0.01 to 100 nM,501 to 1000 nM,,"CN(c1cc2c(cn1)ncn2C)c1ccc(CNS(C)(=O)=O)cc1F [Compound 269, N-(3-Fluoro-4-(methyl(1-methyl-1H-imidazo[4,5-c]pyridin-6-yl)amino)benzyl)methanesulfonamide]",
101 to 500 nM,0.01 to 100 nM,> 5000 nM,101 to 500 nM,,101 to 500 nM,"CCn1nc(-c2ccc(Cl)cc2)cc1N(C)c1cc2c(cn1)ncn2C [Compound 307, [5-(4-Chloro-phenyl)-2-ethyl-2H-pyrazol-3-yl]-methyl-(1-methyl-1H-imidazo[4,5-c]pyridin-6-yl)-amine]",> 1000 nM
> 1000 nM,501 to 1000 nM,> 5000 nM,> 1000 nM,,> 1000 nM,"CCc1cc(C2CN(C(=O)C3CCOCC3)C2)ncc1N(C)c1cc2c(cn1)ncn2C [Compound 337, (3-{4-Ethyl-5-[methyl-(1-methyl-1H-imidazo[4,5-c]pyridin-6-yl)-amino]-pyridin-2-yl}-azetidin-1-yl)-(tetrahydro-pyran-4-yl)-methanone]",> 1000 nM
> 1000 nM,101 to 500 nM,> 5000 nM,> 1000 nM,,> 1000 nM,"CCc1cc(C2CN(CCC(F)(F)F)C2)ncc1N(C)c1cc2c(cn1)ncn2C [Compound 341, {4-Ethyl-6-[1-(3,3,3-trifluoro-propyl)-azetidin-3-yl]-pyridin-3-yl}-methyl-(1-methyl-1H-imidazo[4,5-c]pyridin-6-yl)-amine]",> 1000 nM
> 1000 nM,101 to 500 nM,> 5000 nM,> 1000 nM,,> 1000 nM,"CCc1cc(C2CN(CC(F)(F)F)C2)ncc1N(C)c1cc2c(cn1)ncn2C [Compound 342, {4-Ethyl-6-[1-(2,2,2-trifluoro-ethyl)-azetidin-3-yl]-pyridin-3-yl}-methyl-(1-methyl-1H-imidazo[4,5-c]pyridin-6-yl)-amine]",> 1000 nM
0.01 to 100 nM,0.01 to 100 nM,> 5000 nM,101 to 500 nM,,101 to 500 nM,"CCc1cc(CN(CC#N)S(C)(=O)=O)ncc1N(C)c1cc2c(cn1)ncn2C [Compound 344, N-Cyanomethyl-N-{4-ethyl-5-[methyl-(1-methyl-1H-imidazo[4,5-c]pyridin-6-yl)-amino]-pyridin-2-ylmethyl}-methanesulfonamide]",> 1000 nM
101 to 500 nM,0.01 to 100 nM,> 5000 nM,0.01 to 100 nM,,0.01 to 100 nM,"CCc1cc(C2CN(C(=O)C(F)F)C2)ccc1N(C)c1cc2c(cn1)ncn2C [Compound 346, 1-(3-{3-Ethyl-4-[methyl-(1-methyl-1H-imidazo[4,5-c]pyridin-6-yl)-amino]-phenyl)-azetidin-1-yl)-2,2-difluoro-ethanone]",> 1000 nM
101 to 500 nM,0.01 to 100 nM,> 5000 nM,101 to 500 nM,,101 to 500 nM,"CCc1cc(C2CN(C(=O)C(F)(F)F)C2)ccc1N(C)c1cc2c(cn1)ncn2C [Compound 347, 1-(3-{3-Ethyl-4-[methyl-(1-methyl-1H-imidazo[4,5-c]pyridin-6-yl)-amino]-phenyl}-azetidin-1-yl)-2,2,2-trifluoro-ethanone]",> 1000 nM
101 to 500 nM,0.01 to 100 nM,1000 to 5000 nM,0.01 to 100 nM,,0.01 to 100 nM,"CCc1cc(C2CN(S(=O)(=O)CCOC)C2)ccc1N(C)c1cc2c(cn1)ncn2C [Compound 349, {2-Ethyl-4-[1-(2-methoxy-ethanesulfonyl)-azetidin-3-yl]-phenyl}-methyl-(1-methyl-1H-imidazo[4,5-c]pyridin-6-yl)-amine]",> 1000 nM
> 1000 nM,0.01 to 100 nM,> 5000 nM,101 to 500 nM,,101 to 500 nM,"CCc1cc(C2CN(C(=O)COC)C2)ccc1N(C)c1cc2c(cn1)ncn2C [Compound 350, 1-(3-{3-Ethyl-4-[methyl-(1-methyl-1H-imidazo[4,5-c]pyridin-6-yl)-amino]-phenyl}-azetidin-1-yl)-2-methoxy-ethanone]",> 1000 nM
101 to 500 nM,0.01 to 100 nM,> 5000 nM,101 to 500 nM,,0.01 to 100 nM,"CCc1cc(C2CN(CC#N)C2)ccc1N(C)c1cc2c(cn1)ncn2C [Compound 351, (3-{3-Ethyl-4-[methyl-(1-methyl-1H-imidazo[4,5-c]pyridin-6-yl)-amino]-phenyl}-azetidin-1-yl)-acetonitrile]",> 1000 nM
0.01 to 100 nM,0.01 to 100 nM,> 5000 nM,0.01 to 100 nM,,0.01 to 100 nM,"CCc1cc(C2CN(S(=O)(=O)CC(F)(F)F)C2)ccc1N(C)c1cc2c(cn1)ncn2C [Compound 352, {2-Ethyl-4-[1-(2,2,2-trifluoro-ethanesulfonyl)-azetidin-3-yl]-phenyl}-methyl-(1-methyl-1H-imidazo[4,5-c]pyridin-6-yl)-amine]",> 1000 nM
0.01 to 100 nM,0.01 to 100 nM,1000 to 5000 nM,0.01 to 100 nM,,0.01 to 100 nM,"CCc1cc(C2CN(S(=O)(=O)CC#N)C2)ccc1N(C)c1cc2c(cn1)ncn2C [Compound 353, (3-{3-Ethyl-4-[methyl-(1-methyl-1H-imidazo[4,5-c]pyridin-6-yl)-amino]-phenyl}-azetidine-1-sulfonyl)-acetonitrile]",501 to 1000 nM
0.01 to 100 nM,0.01 to 100 nM,1000 to 5000 nM,0.01 to 100 nM,,0.01 to 100 nM,"CCc1cc(C2CN(S(=O)(=O)C(F)F)C2)ccc1N(C)c1cc2c(cn1)ncn2C [Compound 354, {4-[1-(Difluoro-methanesulfonyl)-azetidin-3-yl]-2-ethyl-phenyl}-methyl-(1-methyl-1H-imidazo[4,5-c]pyridin-6-yl)-amine]",501 to 1000 nM
0.01 to 100 nM,0.01 to 100 nM,1000 to 5000 nM,0.01 to 100 nM,,0.01 to 100 nM,"CCc1cc(CN(C)S(C)(=O)=O)cc(F)c1N(C)c1cc2c(cn1)ncn2C [Compound 356, N-{3-Ethyl-5-fluoro-4-[methyl-(1-methyl-M-imidazo[4,5-c]pyridin-6-yl)-amino]-benzyl}-N-methyl-methanesulfonamide]",501 to 1000 nM
0.01 to 100 nM,0.01 to 100 nM,1000 to 5000 nM,0.01 to 100 nM,,0.01 to 100 nM,"CCc1cc(CN(CC#N)S(C)(=O)=O)cc(F)c1N(C)c1cc2c(cn1)ncn2C [Compound 357, N-Cyanomethyl-N-{3-ethyl-5-fluoro-4-[methyl-(1-methyl-1H-imidazo[4,5-c]pyridin-6-yl)-amino]-benzyl}-methanesulfonamide]",> 1000 nM
,,> 5000 nM,,,,"CCc1cc(CN2CC(F)(F)C2)ccc1N(C)c1cc2c(cn1)ncn2C [Compound 378, [4-(3,3-Difluoro-azetidin-1-ylmethyl)-2-ethyl-phenyl]-methyl-(1-methyl-1H-imidazo[4,5-c]pyridin-6-yl)-amine]",> 1000 nM
